EC50 data for two compounds are collected here from BindingDB's records for patent US20240425524 (Merck Sharp & Dohme, 2024).

As usually defined, the EC50 is the concentration needed to bring the measured effect to its halfway point. Read a low EC50 as an effect from little substance.

The test has as its target T1, Receptor-interacting serine/threonine-protein kinase 1 (Homo sapiens, UniProt Q13546).
T1 sequence (Q13546 whole entry): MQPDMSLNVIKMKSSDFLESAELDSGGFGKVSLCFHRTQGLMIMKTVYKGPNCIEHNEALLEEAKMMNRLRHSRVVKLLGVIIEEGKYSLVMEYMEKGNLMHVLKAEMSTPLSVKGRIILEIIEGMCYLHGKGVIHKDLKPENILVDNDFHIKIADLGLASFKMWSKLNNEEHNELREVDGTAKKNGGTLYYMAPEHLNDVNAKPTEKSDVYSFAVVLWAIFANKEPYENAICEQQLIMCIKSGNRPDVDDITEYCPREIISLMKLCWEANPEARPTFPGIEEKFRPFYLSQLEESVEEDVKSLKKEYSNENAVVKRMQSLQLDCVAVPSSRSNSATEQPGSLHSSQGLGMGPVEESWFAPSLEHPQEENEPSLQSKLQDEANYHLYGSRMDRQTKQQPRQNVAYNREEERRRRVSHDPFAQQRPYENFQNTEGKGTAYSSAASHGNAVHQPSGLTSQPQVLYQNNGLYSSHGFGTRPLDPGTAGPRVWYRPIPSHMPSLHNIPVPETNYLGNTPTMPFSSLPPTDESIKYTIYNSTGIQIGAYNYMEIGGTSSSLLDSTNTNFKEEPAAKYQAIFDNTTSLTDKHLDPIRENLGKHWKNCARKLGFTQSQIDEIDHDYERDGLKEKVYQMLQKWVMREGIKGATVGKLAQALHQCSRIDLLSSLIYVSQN
As to the kind of experiment: RIPK1-ADP-Glo Enzymatic Assay. The method, then: In this assay, the potency (EC50) of each compound was determined from a ten-point (1:3 serial dilution: top compound concentration of 100000 nM) titration curve using the following outlined procedure. To each well of a white ProxiPlus 384 well-plate, 30 nL of compound (1% DMSO in final assay volume of 3 μL) was dispensed, followed by the addition of 2 μL of 1x assay buffer (25 mM Hepes 7.3, 20 mM MgCl2, 50 mM NaCl, 1 mM DTT, 0.005% Tween20, and 0.02% BSA) containing 37.5 nM of GST-RIPK1 (recombinant GST-RIPK1 kinase domain (residues 1-327) enzyme produced from baculovirus-transfected Sf21 cells: MW=62 kDa). Plates were placed in an ambient temperature humidified chamber for a 30 minutes pre-incubation with compound. Subsequently, each reaction was initiated by the addition of 1 μL 1× assay buffer containing 900 μM ATP and […]. The final reaction in each well of 3 μL consists of 25 nM of GST-RIPK1, 300 µM ATP, and 3 μM dephosphorylated-MBP. Kinase reactions were allowed to proceed for 150 minutes prior to adding ADP-Glo reagents per Promega's outlined kit protocol. Dose-response curves were generated by plotting percent effect (% product conversion: Y-axis) vs. Logio compound concentrations (X-axis).

With `Cc1csc2ncnc(N3CCC4(CC3)CN3CC[C@@H](c5cc(F)cc(F)c5)N3C4=O)c12` [US20240425524, Example 1.15], it took 17 nM to reach a half-maximal effect (EC50).

In turn, `O=C1N2[C@H](c3cc(F)cc(F)c3)CCN2CC12CCN(c1cc(Cl)c(F)cn1)CC2` [US20240425524, Example 1.10] came in with a 50% effective concentration (EC50) of 10 nM.
